Experimental data taken from PubChem BioAssay (NCI).
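Growth conditions: 96-well plates. Treatment: test compound, 48 hours, 5 concentrations. Analysis: linear interpolation between bracketing concentrations; unreached endpoints set to highest concentration. Abbreviation: GI50, concentration required for 50% inhibition of growth. TGI denotes the concentration required for complete inhibition of growth.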

Assays:
Assay in all cases: NCI anticancer screen, dose series, 48 h
OVCAR-5 ovarian = tested on: OVCAR-5 ovarian
TK-10 renal = tested on: TK-10 renal
MCF7 breast = tested on: MCF7 breast
OVCAR-4 ovarian = tested on: OVCAR-4 ovarian
SR leukemia = tested on: SR leukemia
HOP-62 NSCLC = tested on: HOP-62 NSCLC
MOLT-4 leukemia = tested on: MOLT-4 leukemia
SK-OV-3 ovarian = tested on: SK-OV-3 ovarian
HL-60(TB) leukemia = tested on: HL-60(TB) leukemia
K-562 leukemia = tested on: K-562 leukemia

| Structure (SMILES) | GI50 (OVCAR-5 ovarian) | TGI (OVCAR-5 ovarian) | GI50 (TK-10 renal) | TGI (TK-10 renal) | GI50 (MCF7 breast) | TGI (MCF7 breast) | GI50 (OVCAR-4 ovarian) | TGI (OVCAR-4 ovarian) | GI50 (SR leukemia) | GI50 (HOP-62 NSCLC) | TGI (HOP-62 NSCLC) | GI50 (MOLT-4 leukemia) | TGI (MOLT-4 leukemia) | GI50 (SK-OV-3 ovarian) | TGI (SK-OV-3 ovarian) | GI50 (HL-60(TB) leukemia) | TGI (HL-60(TB) leukemia) | GI50 (K-562 leukemia) | TGI (K-562 leukemia) | TGI (SR leukemia) |
| --- | --- | --- | --- | --- | --- | --- | --- | --- | --- | --- | --- | --- | --- | --- | --- | --- | --- | --- | --- | --- |
| CC/C=C\C[C@H]1C/C=C2/C(=O)C=C[C@@H]2C/C=C\CCCC(=O)O1 | 0.567 µM | 2.53 µM | 1.8 µM | 5.03 µM | 0.395 µM | 8.06 µM | 2.73 µM | 16.3 µM | 0.288 µM | 1.81 µM | 5.39 µM | 0.604 µM | 5.21 µM | 3.99 µM | 12.9 µM | 0.439 µM | 3.3 µM | 0.353 µM | > 54.5 µM | – |
| CC1=CC(C/C(C)=C/COc2ccc3ccc(=O)oc3c2)OC1=O (centres undefined) | – | > 100 µM | – | > 100 µM | – | > 100 µM | – | > 100 µM | – | – | > 100 µM | – | > 100 µM | – | > 100 µM | – | > 100 µM | – | > 100 µM | > 100 µM |
| O=C1NC(=O)C(CC2CCCCCCCCCCC2=O)C(=O)N1 (centres undefined) | – | > 100 µM | – | > 100 µM | – | > 100 µM | – | > 100 µM | – | – | > 100 µM | – | > 100 µM | – | > 100 µM | – | > 100 µM | – | – | 5.28 µM |
| COc1c(CCl)cc(-c2cc(=O)c3ccccc3s2)cc1CCl | – | > 100 µM | – | 99.7 µM | – | > 22.7 µM | – | 16.4 µM | – | – | 32.6 µM | – | – | – | > 60.2 µM | – | > 23.6 µM | – | > 100 µM | > 100 µM |
| Cc1ccc2[nH]c(O)c(N=Nc3ccc(S(N)(=O)=O)cc3)c2c1 | > 25 µM | > 25 µM | 10.1 µM | > 25 µM | 8.4 µM | > 25 µM | 6.62 µM | > 25 µM | 7.23 µM | 11.5 µM | > 25 µM | > 21.5 µM | > 25 µM | 19.9 µM | > 25 µM | > 25 µM | > 25 µM | 13.8 µM | > 25 µM | > 25 µM |
| CCn1c(-c2ccc(OC(C)=O)cc2)c(C)c2cc(OC(C)=O)ccc21 | – | 55 µM | – | 74.3 µM | – | 40.4 µM | – | 59.8 µM | – | – | 47.7 µM | – | 34 µM | – | 74.5 µM | – | 42.9 µM | – | 55.3 µM | 30.8 µM |
| O=C1CC2c3ccccc3CCC2c2ccccc21 (centres undefined) | – | > 100 µM | – | > 100 µM | – | > 100 µM | – | – | – | – | > 100 µM | – | > 100 µM | – | > 100 µM | – | > 100 µM | – | > 100 µM | > 100 µM |
| O=C1CSC(c2ccc(Cl)cc2Cl)N1c1ccc(F)cc1 (centres undefined) | 16 µM | 29.5 µM | 14.4 µM | 27.7 µM | 14 µM | 27 µM | 16.8 µM | 31.9 µM | 19.6 µM | 18 µM | 32.3 µM | 18.5 µM | 43.4 µM | – | – | 21.2 µM | 45.6 µM | 19.8 µM | 45.7 µM | 40.9 µM |
